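These data come from cells grown in 96-well plates and exposed to compound for 48 hours at five concentrations. GI50 = concentration required for 50% inhibition of growth.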 Calls of active or inactive are those of the source. Rule as the data show it: active = GI50 up to about 1.1 µM and inactive = higher.
Legend:
Experiment in all cases: NCI-60 cell line screen, 48 h
786-0 = test system: 786-0
A498 = test system: A498
A549 = test system: A549
ACHN = test system: ACHN
CAKI-1 = test system: CAKI-1
COLO 205 = test system: COLO 205
DMS-114 = test system: DMS-114
DMS-273 = test system: DMS-273
DU-145 = test system: DU-145
EKVX = test system: EKVX
HCC 2998 = test system: HCC 2998
HCT-116 = test system: HCT-116
HCT-15 = test system: HCT-15
HL-60 = test system: HL-60
HOP-18 = test system: HOP-18
HOP-62 = test system: HOP-62
HOP-92 = test system: HOP-92
HT-29 = test system: HT-29
Hs-578T = test system: Hs-578T
IGROV-1 = test system: IGROV-1
K562 = test system: K562
KM-20L2 = test system: KM-20L2
KM12 = test system: KM12
LOX IMVI = test system: LOX IMVI
LXFL 529 = test system: LXFL 529
M14 = test system: M14
M19-MEL = test system: M19-MEL
MCF7 = test system: MCF7
MDA-MB-231 = test system: MDA-MB-231
MDA-MB-435 = test system: MDA-MB-435
MDA-N = test system: MDA-N
MOLT-4 = test system: MOLT-4
Malme-3M = test system: Malme-3M
NCI-H226 = test system: NCI-H226
NCI-H23 = test system: NCI-H23
NCI-H460 = test system: NCI-H460
NCI-H522 = test system: NCI-H522
NCI/ADR-RES = test system: NCI/ADR-RES
OVCAR-3 = test system: OVCAR-3
OVCAR-4 = test system: OVCAR-4
OVCAR-5 = test system: OVCAR-5
OVCAR-8 = test system: OVCAR-8
PC-3 = test system: PC-3
RPMI-8226 = test system: RPMI-8226
RXF 393 = test system: RXF 393
SF-268 = test system: SF-268
SF-295 = test system: SF-295
SF-539 = test system: SF-539
SK-MEL-28 = test system: SK-MEL-28
SK-MEL-2 = test system: SK-MEL-2
SK-MEL-5 = test system: SK-MEL-5
SK-OV-3 = test system: SK-OV-3
SN12C = test system: SN12C
SNB-19 = test system: SNB-19
SNB-75 = test system: SNB-75
SNB-78 = test system: SNB-78
SR = test system: SR
SW-620 = test system: SW-620
T47D = test system: T47D
TK-10 = test system: TK-10
U-251 = test system: U-251
UACC-257 = test system: UACC-257
UACC-62 = test system: UACC-62
UO-31 = test system: UO-31
XF498 = test system: XF498
CCRF-CEM = test system: CCRF-CEM
DLD-1 = test system: DLD-1

Question: Which results are given for `C=CCNc1nc2c(s1)C(=O)c1ccccc1C2=O`?
Answer: GI50 (786-0): 14.5 µM (inactive); GI50 (A498): 19.5 µM (inactive); GI50 (A549): 6.43 µM (inactive); GI50 (ACHN): 7.62 µM (inactive); GI50 (CAKI-1): 13.7 µM (inactive); GI50 (COLO 205): 20.1 µM (inactive); GI50 (DMS-114): 1.77 µM (inactive); GI50 (DMS-273): 9.82 µM (inactive); GI50 (DU-145): 18.6 µM (inactive); GI50 (EKVX): 15.6 µM (inactive); GI50 (HCC 2998): 20.7 µM (inactive); GI50 (HCT-116): 3.81 µM (inactive); GI50 (HCT-15): 8.51 µM; GI50 (HL-60): 1.61 µM (inactive); GI50 (HOP-18): 11 µM (inactive); GI50 (HOP-62): 13.4 µM (inactive); GI50 (HOP-92): 9.31 µM (inactive); GI50 (HT-29): 21.8 µM (inactive); GI50 (Hs-578T): 32.1 µM (inactive); GI50 (IGROV-1): 8.73 µM (inactive); GI50 (K562): 4.76 µM (inactive); GI50 (KM-20L2): 19.1 µM (inactive); GI50 (KM12): 13.8 µM (inactive); GI50 (LOX IMVI): 4.31 µM (inactive); GI50 (LXFL 529): 11.4 µM (inactive); GI50 (M14): 5.12 µM (inactive); GI50 (M19-MEL): 1.76 µM (inactive); GI50 (MCF7): 6.25 µM (inactive); GI50 (MDA-MB-231): 10 µM (inactive); GI50 (MDA-MB-435): 1.91 µM (inactive); GI50 (MDA-N): 1.86 µM (inactive); GI50 (MOLT-4): 2.26 µM (inactive); GI50 (Malme-3M): 12.5 µM (inactive); GI50 (NCI-H226): 21.2 µM (inactive); GI50 (NCI-H23): 4.4 µM (inactive); GI50 (NCI-H460): 12 µM (inactive); GI50 (NCI-H522): 6.41 µM (inactive); GI50 (NCI/ADR-RES): 15.4 µM (inactive); GI50 (OVCAR-3): 12.1 µM (inactive); GI50 (OVCAR-4): 7.87 µM (inactive); GI50 (OVCAR-5): 21.7 µM (inactive); GI50 (OVCAR-8): 3.73 µM (inactive); GI50 (PC-3): 12.6 µM (inactive); GI50 (RPMI-8226): 3.12 µM (inactive); GI50 (RXF 393): 18.6 µM (inactive); GI50 (SF-268): 12.4 µM (inactive); GI50 (SF-295): 14.8 µM (inactive); GI50 (SF-539): 8.11 µM (inactive); GI50 (SK-MEL-28): 9.71 µM (inactive); GI50 (SK-MEL-2): 10.9 µM (inactive); GI50 (SK-MEL-5): 1.7 µM (inactive); GI50 (SK-OV-3): 17.9 µM (inactive); GI50 (SN12C): 11.6 µM (inactive); GI50 (SNB-19): 14.9 µM (inactive); GI50 (SNB-75): 18.7 µM (inactive); GI50 (SNB-78): 24.4 µM (inactive); GI50 (SR): 3.43 µM (inactive); GI50 (SW-620): 12.9 µM (inactive); GI50 (T47D): 14.4 µM (inactive); GI50 (TK-10): 19.2 µM (inactive); GI50 (U-251): 7.55 µM (inactive); GI50 (UACC-257): 2.7 µM (inactive); GI50 (UACC-62): 3.9 µM (inactive); GI50 (UO-31): 13.3 µM (inactive); GI50 (XF498): 20.4 µM (inactive)

Question: How did the GI50 (786-0) turn out when `Cc1cccc2c(O)cc(=O)oc12` was run?
Answer: The GI50 was > 100 µM (inactive).

Question: What about the GI50 (A498) of the same compound?
Answer: The GI50 was > 100 µM (inactive).

Question: What about the GI50 (A549) of the same compound?
Answer: Its GI50 is > 100 µM (inactive).

Question: And the GI50 (ACHN)?
Answer: Its GI50 is > 100 µM (inactive).

Question: What about the GI50 (CCRF-CEM) of the same compound?
Answer: Its GI50 is > 100 µM (inactive).

Question: What about the GI50 (DLD-1) of the same compound?
Answer: The GI50 was > 100 µM (inactive).

Question: And the GI50 (DMS-114)?
Answer: The GI50 was > 100 µM (inactive).

Question: And the GI50 (EKVX)?
Answer: The GI50 was > 100 µM (inactive).

Question: And the GI50 (HCT-116)?
Answer: Its GI50 is > 100 µM (inactive).

Question: What about the GI50 (HL-60) of the same compound?
Answer: Its GI50 is > 100 µM (inactive).

Question: And the GI50 (HOP-18)?
Answer: The GI50 was > 100 µM (inactive).

Question: What about the GI50 (HOP-62) of the same compound?
Answer: Its GI50 is > 100 µM (inactive).

Question: What about the GI50 (HT-29) of the same compound?
Answer: Its GI50 is > 100 µM (inactive).

Question: And the GI50 (IGROV-1)?
Answer: Its GI50 is > 100 µM (inactive).

Question: What about the GI50 (K562) of the same compound?
Answer: The GI50 was > 100 µM (inactive).

Question: What about the GI50 (KM-20L2) of the same compound?
Answer: Its GI50 is > 100 µM (inactive).

Question: And the GI50 (KM12)?
Answer: The GI50 was > 100 µM (inactive).

Question: And the GI50 (LOX IMVI)?
Answer: The GI50 was > 100 µM (inactive).

Question: And the GI50 (LXFL 529)?
Answer: The GI50 was > 100 µM (inactive).

Question: What about the GI50 (M14) of the same compound?
Answer: The GI50 was > 100 µM (inactive).

Question: And the GI50 (M19-MEL)?
Answer: Its GI50 is > 100 µM (inactive).

Question: What about the GI50 (MOLT-4) of the same compound?
Answer: The GI50 was > 100 µM (inactive).

Question: And the GI50 (Malme-3M)?
Answer: Its GI50 is > 100 µM (inactive).

Question: And the GI50 (NCI-H226)?
Answer: Its GI50 is > 100 µM (inactive).

Question: What about the GI50 (NCI-H23) of the same compound?
Answer: The GI50 was > 100 µM (inactive).

Question: And the GI50 (NCI-H460)?
Answer: Its GI50 is > 100 µM (inactive).

Question: And the GI50 (OVCAR-3)?
Answer: Its GI50 is > 100 µM (inactive).

Question: What about the GI50 (OVCAR-4) of the same compound?
Answer: Its GI50 is > 100 µM (inactive).

Question: What about the GI50 (OVCAR-5) of the same compound?
Answer: The GI50 was > 100 µM (inactive).

Question: What about the GI50 (OVCAR-8) of the same compound?
Answer: Its GI50 is > 100 µM (inactive).

Question: And the GI50 (RPMI-8226)?
Answer: The GI50 was > 100 µM (inactive).

Question: What about the GI50 (RXF 393) of the same compound?
Answer: Its GI50 is > 100 µM (inactive).

Question: And the GI50 (SF-268)?
Answer: Its GI50 is > 100 µM (inactive).

Question: What about the GI50 (SF-295) of the same compound?
Answer: The GI50 was > 100 µM (inactive).

Question: And the GI50 (SF-539)?
Answer: Its GI50 is > 100 µM (inactive).

Question: What about the GI50 (SK-MEL-28) of the same compound?
Answer: The GI50 was > 100 µM (inactive).

Question: What about the GI50 (SK-OV-3) of the same compound?
Answer: The GI50 was > 100 µM (inactive).

Question: What about the GI50 (SN12C) of the same compound?
Answer: Its GI50 is > 100 µM (inactive).

Question: And the GI50 (SNB-19)?
Answer: The GI50 was > 100 µM (inactive).

Question: And the GI50 (SNB-75)?
Answer: Its GI50 is > 100 µM (inactive).

Question: And the GI50 (SNB-78)?
Answer: The GI50 was > 100 µM (inactive).

Question: And the GI50 (SR)?
Answer: Its GI50 is > 100 µM (inactive).

Question: And the GI50 (SW-620)?
Answer: The GI50 was > 100 µM (inactive).

Question: And the GI50 (TK-10)?
Answer: Its GI50 is > 100 µM (inactive).

Question: And the GI50 (U-251)?
Answer: Its GI50 is > 100 µM (inactive).

Question: What about the GI50 (UACC-257) of the same compound?
Answer: Its GI50 is > 100 µM (inactive).

Question: What about the GI50 (UACC-62) of the same compound?
Answer: Its GI50 is > 100 µM (inactive).

Question: What about the GI50 (UO-31) of the same compound?
Answer: The GI50 was > 100 µM (inactive).

Question: What about the GI50 (XF498) of the same compound?
Answer: The GI50 was > 100 µM (inactive).
